Legend:
Type in all cases: in vivo
[1] = system: barnyardgrass (Echinochloa crus-galli); experiment: Test G Pre-Emergence Protocol; settings: Echinochloa crus-galli, pre-emergence, 312 h, evaluated after 13 days; for pest or weed control at 15.625 g/ha: 15.625 g ai/ha; for pest or weed control at 15.625 g/ha / pest or weed control at 250 g/ha: read-out: Barnyardgrass damage rating (100=total damage to plant; 0=no damage to plant); for pest or weed control at 62.5 g/ha: 62.5 g ai/ha, 100=total damage to plant, 0=no damage to plant, read-out: Barnyardgrass damage rating; for pest or weed control at 250 g/ha: 250 g ai/ha
In short: (§1)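 Herbicidal effect was rated 13 days post-application on a scale where 100 equals total damage. Spraying took place the day after sowing, using 15.625, 62.5 or 250 g/ha of compound in a 50:50 acetone/water solution with 0.5% Tween 20.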

corn (Zea mays) [2] = experiment: Test G Pre-Emergence Protocol; settings: Zea mays, pre-emergence, 312 h, evaluated after 13 days; for plant injury at 15.625 g/ha: 15.625 g ai/ha; for plant injury at 15.625 g/ha / plant injury at 250 g/ha: read-out: Corn damage rating (100=total damage to plant; 0=no damage to plant); for plant injury at 62.5 g/ha: 62.5 g ai/ha, 100=total damage to plant, 0=no damage to plant, read-out: Corn damage rating; for plant injury at 250 g/ha: 250 g ai/ha
In short: as §1

[3] = system: giant foxtail (Setaria faberi); experiment: Test G Pre-Emergence Protocol; settings: Setaria faberi, pre-emergence, 312 h, evaluated after 13 days; for pest or weed control at 15.625 g/ha: 15.625 g ai/ha; for pest or weed control at 15.625 g/ha / pest or weed control at 250 g/ha: read-out: Foxtail, Giant damage rating (100=total damage to plant; 0=no damage to plant); for pest or weed control at 62.5 g/ha: 62.5 g ai/ha, 100=total damage to plant, 0=no damage to plant, read-out: Foxtail, Giant damage rating; for pest or weed control at 250 g/ha: 250 g ai/ha
In short: as §1

[4] = system: ivy-leaved morning glory (Ipomoea hederacea); experiment: Test G Pre-Emergence Protocol; settings: Ipomoea, pre-emergence, 312 h, evaluated after 13 days; for pest or weed control at 15.625 g/ha: 15.625 g ai/ha; for pest or weed control at 15.625 g/ha / pest or weed control at 250 g/ha: read-out: Morningglory, Ivy-leaved damage rating (100=total damage to plant; 0=no damage to plant); for pest or weed control at 62.5 g/ha: 62.5 g ai/ha, 100=total damage to plant, 0=no damage to plant, read-out: Morningglory, Ivy-leaved damage rating; for pest or weed control at 250 g/ha: 250 g ai/ha
In short: as §1

[5] = system: redroot pigweed (Amaranthus retroflexus); experiment: Test G Pre-Emergence Protocol; settings: Amaranthus retroflexus, pre-emergence, 312 h, evaluated after 13 days; for pest or weed control at 15.625 g/ha: 15.625 g ai/ha; for pest or weed control at 15.625 g/ha / pest or weed control at 250 g/ha: read-out: Pigweed, Redroot damage rating (100=total damage to plant; 0=no damage to plant); for pest or weed control at 62.5 g/ha: 62.5 g ai/ha, 100=total damage to plant, 0=no damage to plant, read-out: Pigweed, Redroot damage rating; for pest or weed control at 250 g/ha: 250 g ai/ha
In short: as §1

[6] = system: velvetleaf (Abutilon theophrasti); experiment: Test G Pre-Emergence Protocol; settings: Abutilon theophrasti, pre-emergence, 312 h, evaluated after 13 days; for pest or weed control at 15.625 g/ha: 15.625 g ai/ha; for pest or weed control at 15.625 g/ha / pest or weed control at 250 g/ha: read-out: Velvetleaf damage rating (100=total damage to plant; 0=no damage to plant); for pest or weed control at 62.5 g/ha: 62.5 g ai/ha, 100=total damage to plant, 0=no damage to plant, read-out: Velvetleaf damage rating; for pest or weed control at 250 g/ha: 250 g ai/ha
In short: as §1

[7] = system: barnyardgrass (Echinochloa crus-galli); experiment: Test G Post-Emergence Protocol; settings: Echinochloa crus-galli, post-emergence, 312 h, read-out: Barnyardgrass damage rating; for pest or weed control at 15.625 g/ha: 15.625 g ai/ha, evaluated after 13 days (100=total damage to plant; 0=no damage to plant); for pest or weed control at 62.5 g/ha: 62.5 g ai/ha; for pest or weed control at 62.5 g/ha / pest or weed control at 250 g/ha: evaluated after 13 days, 100=total damage to plant, 0=no damage to plant; for pest or weed control at 250 g/ha: 250 g ai/ha
In short: (§2)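 Eight days post-sowing, plants received a spray of test compound (acetone/water 50:50, 0.5% Tween 20) at 15.625, 62.5 or 250 g/ha. Glasshouse regime thereafter: 24/16 °C, 14 h light, 65% humidity. Assessment after 13 days on a 0–100 damage scale.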

corn (Zea mays) [8] = experiment: Test G Post-Emergence Protocol; settings: Zea mays, post-emergence, 312 h, read-out: Corn damage rating; for plant injury at 15.625 g/ha: 15.625 g ai/ha, evaluated after 13 days (100=total damage to plant; 0=no damage to plant); for plant injury at 62.5 g/ha: 62.5 g ai/ha; for plant injury at 62.5 g/ha / plant injury at 250 g/ha: evaluated after 13 days, 100=total damage to plant, 0=no damage to plant; for plant injury at 250 g/ha: 250 g ai/ha
In short: as §2

[9] = system: giant foxtail (Setaria faberi); experiment: Test G Post-Emergence Protocol; settings: Setaria faberi, post-emergence, 312 h, read-out: Foxtail, Giant damage rating; for pest or weed control at 15.625 g/ha: 15.625 g ai/ha, evaluated after 13 days (100=total damage to plant; 0=no damage to plant); for pest or weed control at 62.5 g/ha: 62.5 g ai/ha; for pest or weed control at 62.5 g/ha / pest or weed control at 250 g/ha: evaluated after 13 days, 100=total damage to plant, 0=no damage to plant; for pest or weed control at 250 g/ha: 250 g ai/ha
In short: as §2

[10] = system: ivy-leaved morning glory (Ipomoea hederacea); experiment: Test G Post-Emergence Protocol; settings: Ipomoea, post-emergence, 312 h, read-out: Morningglory, Ivy-leaved damage rating; for pest or weed control at 15.625 g/ha: 15.625 g ai/ha, evaluated after 13 days (100=total damage to plant; 0=no damage to plant); for pest or weed control at 62.5 g/ha: 62.5 g ai/ha; for pest or weed control at 62.5 g/ha / pest or weed control at 250 g/ha: evaluated after 13 days, 100=total damage to plant, 0=no damage to plant; for pest or weed control at 250 g/ha: 250 g ai/ha
In short: as §2

[11] = system: redroot pigweed (Amaranthus retroflexus); experiment: Test G Post-Emergence Protocol; settings: Amaranthus retroflexus, post-emergence, 312 h, read-out: Pigweed, Redroot damage rating; for pest or weed control at 15.625 g/ha: 15.625 g ai/ha, evaluated after 13 days (100=total damage to plant; 0=no damage to plant); for pest or weed control at 62.5 g/ha: 62.5 g ai/ha; for pest or weed control at 62.5 g/ha / pest or weed control at 250 g/ha: evaluated after 13 days, 100=total damage to plant, 0=no damage to plant; for pest or weed control at 250 g/ha: 250 g ai/ha
In short: as §2

[12] = system: velvetleaf (Abutilon theophrasti); experiment: Test G Post-Emergence Protocol; settings: Abutilon theophrasti, post-emergence, 312 h, read-out: Velvetleaf damage rating; for pest or weed control at 15.625 g/ha: 15.625 g ai/ha, evaluated after 13 days (100=total damage to plant; 0=no damage to plant); for pest or weed control at 62.5 g/ha: 62.5 g ai/ha; for pest or weed control at 62.5 g/ha / pest or weed control at 250 g/ha: evaluated after 13 days, 100=total damage to plant, 0=no damage to plant; for pest or weed control at 250 g/ha: 250 g ai/ha
In short: as §2

Row | Compound | pest or weed control at 15.625 g/ha [1] [%] | pest or weed control at 62.5 g/ha [1] [%] | pest or weed control at 250 g/ha [1] [%] | plant injury at 15.625 g/ha (corn (Zea mays) [2]) [%] | plant injury at 62.5 g/ha (corn (Zea mays) [2]) [%] | plant injury at 250 g/ha (corn (Zea mays) [2]) [%] | pest or weed control at 15.625 g/ha [3] [%] | pest or weed control at 62.5 g/ha [3] [%] | pest or weed control at 250 g/ha [3] [%] | pest or weed control at 15.625 g/ha [4] [%] | pest or weed control at 62.5 g/ha [4] [%] | pest or weed control at 250 g/ha [4] [%] | pest or weed control at 15.625 g/ha [5] [%] | pest or weed control at 62.5 g/ha [5] [%] | pest or weed control at 250 g/ha [5] [%] | pest or weed control at 15.625 g/ha [6] [%] | pest or weed control at 62.5 g/ha [6] [%] | pest or weed control at 250 g/ha [6] [%] | pest or weed control at 15.625 g/ha [7] [%] | pest or weed control at 62.5 g/ha [7] [%] | other results
1 | CN1C[C@@H](c2ccc(C(F)(F)F)cc2)[C@H](C(=O)Nc2ccncc2F)C1=O (racemic) [Compound 1652] | 0 | 0 | 0 | 0 | 0 | 10 | 0 | 10 | 30 | 0 | 0 | 0 | 0 | 0 | 0 | 0 | 0 | 0 | 0 | 20 | pest or weed control at 250 g/ha [7]: 30%; plant injury at 15.625 g/ha (corn (Zea mays) [8]): 0%; plant injury at 62.5 g/ha (corn (Zea mays) [8]): 0%; plant injury at 250 g/ha (corn (Zea mays) [8]): 0%; pest or weed control at 15.625 g/ha [9]: 0%; pest or weed control at 62.5 g/ha [9]: 20%; pest or weed control at 250 g/ha [9]: 40%; pest or weed control at 15.625 g/ha [10]: 0%; pest or weed control at 62.5 g/ha [10]: 0%; pest or weed control at 250 g/ha [10]: 0%; pest or weed control at 15.625 g/ha [11]: 0%; pest or weed control at 62.5 g/ha [11]: 0%; pest or weed control at 250 g/ha [11]: 0%; pest or weed control at 15.625 g/ha [12]: 0%; pest or weed control at 62.5 g/ha [12]: 0%; pest or weed control at 250 g/ha [12]: 0%
2 | CN1C[C@@H](c2ccc(C(F)(F)F)cc2)[C@H](C(=O)Nc2ccc(F)nn2)C1=O (racemic) [Compound 1655] | 0 | 0 | 0 | 0 | 0 | 0 | 0 | 0 | 30 | 0 | 0 | 0 | 0 | 0 | 0 | 0 | 0 | 0 | 0 | 20 | pest or weed control at 250 g/ha [7]: 20%; plant injury at 15.625 g/ha (corn (Zea mays) [8]): 0%; plant injury at 62.5 g/ha (corn (Zea mays) [8]): 0%; plant injury at 250 g/ha (corn (Zea mays) [8]): 0%; pest or weed control at 15.625 g/ha [9]: 0%; pest or weed control at 62.5 g/ha [9]: 30%; pest or weed control at 250 g/ha [9]: 30%; pest or weed control at 15.625 g/ha [10]: 0%; pest or weed control at 62.5 g/ha [10]: 0%; pest or weed control at 250 g/ha [10]: 0%; pest or weed control at 15.625 g/ha [11]: 0%; pest or weed control at 62.5 g/ha [11]: 0%; pest or weed control at 250 g/ha [11]: 40%; pest or weed control at 15.625 g/ha [12]: 0%; pest or weed control at 62.5 g/ha [12]: 0%; pest or weed control at 250 g/ha [12]: 0%
